# Reference: patent US4596828A, “[(2-hydroxy-5-alkoxyphenyl)methylthio]phenylmethanol and derivatives thereof useful as anti-inflammatory agents” (Merck & Co., Inc., priority 1985, dated 1986)
# Tested on: inflammatory responses elicited by topically applied phorbol myristate acetate (PMA) or arachidonic acid (AA) in mouse ears
# Experiment: Topical mouse ear assay (TME): edema measured by wet weight after topical PMA or AA
# Type: in vivo
# Conditions: mean, N=5 mice/group
# Procedure: The topical mouse ear assay (TME) was used to evaluate the novel compounds of the present invention for its effect on inflammatory responses elicited by topically applied phorbol myristate acetate (PMA) or topically applied archidonic acid (AA).
# Method: The right ears of mice (5 mice per group) were treated topically with either […] or 1000 μg AA alone or with the test compound in 25 μl of vehicle. The vehicle was water/pyridine/acetone (1:2:97). A control group of mice received the vehicle only. The mice were allowed food and water ad libitum during the treatment period; 2 hours for AA and 4 hours for PMA. The mice were sacrificed by cervical dislocation and a 6 mm diameter disc of tissue punched from both the treated and untreated ears. The tissue biopsies were immediately weighed and the weight increase of the treated ear relative to the weight of the untreated ear determined.
# All of the data are expressed as the mean ±SEM, N=5 mice/group.
smiles,measurement,setting,value
"COc1ccc(O)c(CSc2ccccc2CO)c1 [Compound A, 2-[2-(Hydroxymethyl)phenylthiomethyl]-4-methoxyphenol]",Edema (% inhibition),dosage 30 μg,12%
same,Edema (% inhibition),dosage 50 μg,16%
same,Edema (% inhibition),dosage 200 μg,55%
same,Edema (% inhibition),dosage 300 μg,63%
"C[C@@H]1C[C@H]2[C@@H]3CCC4=CC(=O)C=C[C@]4(C)[C@@]3(F)[C@@H](O)C[C@]2(C)[C@@]1(O)C(=O)CO [Dexamethasone, reference compound]",Edema (% inhibition),dosage 5 μg,60%
"COc1ccc2c(c1)c(CC(=O)O)c(C)n2C(=O)c1ccc(Cl)cc1 [Indomethacin, reference compound]",Edema (% inhibition),dosage 150 μg,51%
